This passage reports Antihistaminic activity results from patent publication US6335347B1, “Ethyl 4-(8-chloro-5,6-dihydro-11 H-benzo[5,6]cyclohepta[1,2-b]pyridin-11-ylidene)-1-piperidene carboxylate polymorph” (Schering Corporation, priority 1997, dated 2002).

The subject of the assay is monkey model. In words: Antihistaminic activity in a monkey model.

Take `CCOC(=O)N1CCC(=C2c3ccc(Cl)cc3CCc3cccnc32)CC1` [polymorph form 2 loratadine, ethyl 4-(8-chloro-5,6,-dihydro-11H-benzo[5,6]cyclohepta[1,2-b]pyridin-11-ylidene)-1-piperidene carboxylate]: the Antihistaminic activity result is reported as “demonstrated”.
